In publication PMC7855981, “Rho-Kinase 1/2 Inhibition Prevents Transforming Growth Factor-β-Induced Effects on Pulmonary Remodeling and Repair” (Frontiers in Pharmacology, 2021) one finds IC50 and remaining binding data, which are given here for 2 compounds.

Test [1] concerns the target T1, ROCK1 (Homo sapiens, UniProt Q13464).
T1 construct: GST-tagged 1–535 human ROCK1
Kind of test: ADP-Glo kinase assay with […] ATP. It is filed as biochemical. (In ADP-Glo the light output rises with the ADP produced.)

For test [2], the target named is T2, ROCK2 (Homo sapiens, UniProt O75116).
T2 construct: GST-tagged 1–552 human ROCK2
T2 sequence (O75116 1-552): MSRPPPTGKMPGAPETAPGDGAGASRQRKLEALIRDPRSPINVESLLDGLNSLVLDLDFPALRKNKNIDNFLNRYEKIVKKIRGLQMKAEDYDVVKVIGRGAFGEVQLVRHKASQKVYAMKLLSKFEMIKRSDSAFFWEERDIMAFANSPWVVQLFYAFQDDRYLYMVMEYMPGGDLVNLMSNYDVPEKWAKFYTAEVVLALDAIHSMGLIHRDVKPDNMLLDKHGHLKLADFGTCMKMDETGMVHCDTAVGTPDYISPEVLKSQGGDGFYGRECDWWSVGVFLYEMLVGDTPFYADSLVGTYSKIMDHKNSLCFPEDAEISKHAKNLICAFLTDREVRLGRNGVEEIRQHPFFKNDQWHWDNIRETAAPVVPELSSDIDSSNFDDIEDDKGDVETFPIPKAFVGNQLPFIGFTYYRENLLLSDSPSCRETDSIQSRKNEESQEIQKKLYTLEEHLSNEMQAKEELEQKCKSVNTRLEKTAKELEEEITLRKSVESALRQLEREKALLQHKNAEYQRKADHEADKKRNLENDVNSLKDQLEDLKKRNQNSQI
Kind of test: ADP-Glo kinase assay with […] ATP; also KINOMEscan competition at […] ([…] vs CTRL). It is filed as biochemical.

Test [3] addresses T2, ROCK2. Kind of test: ADP-Glo kinase assay with […] ATP; also KINOMEscan competition at […] ([…] CTRL). It is filed as biochemical.
For test [4], the target named is VRK2 (Homo sapiens, UniProt Q86Y07). Kind of test: KINOMEscan competition binding, single concentration […] ([…] of control). The note with it: read-out: % CTRL at 100 nM.
VRK2, sequence (Q86Y07 whole entry): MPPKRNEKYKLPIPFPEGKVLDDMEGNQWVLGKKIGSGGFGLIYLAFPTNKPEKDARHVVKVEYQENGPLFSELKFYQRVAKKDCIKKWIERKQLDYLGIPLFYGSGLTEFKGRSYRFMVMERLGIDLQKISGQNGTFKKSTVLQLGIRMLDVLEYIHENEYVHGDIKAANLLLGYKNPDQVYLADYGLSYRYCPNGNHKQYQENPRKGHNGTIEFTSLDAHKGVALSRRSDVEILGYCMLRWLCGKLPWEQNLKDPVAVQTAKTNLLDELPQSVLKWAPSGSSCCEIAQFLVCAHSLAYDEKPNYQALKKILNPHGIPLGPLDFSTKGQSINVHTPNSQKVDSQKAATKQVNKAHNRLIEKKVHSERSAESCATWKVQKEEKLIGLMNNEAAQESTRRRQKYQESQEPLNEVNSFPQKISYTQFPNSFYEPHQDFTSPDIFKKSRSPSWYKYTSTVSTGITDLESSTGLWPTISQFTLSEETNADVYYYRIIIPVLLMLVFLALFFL
Test [5] deals with T1, ROCK1. The test is described as follows: ADP-Glo kinase assay with […] ATP; also KINOMEscan competition at […] ([…] CTRL). Format: biochemical.

T1 sequence (Q13464 1-535): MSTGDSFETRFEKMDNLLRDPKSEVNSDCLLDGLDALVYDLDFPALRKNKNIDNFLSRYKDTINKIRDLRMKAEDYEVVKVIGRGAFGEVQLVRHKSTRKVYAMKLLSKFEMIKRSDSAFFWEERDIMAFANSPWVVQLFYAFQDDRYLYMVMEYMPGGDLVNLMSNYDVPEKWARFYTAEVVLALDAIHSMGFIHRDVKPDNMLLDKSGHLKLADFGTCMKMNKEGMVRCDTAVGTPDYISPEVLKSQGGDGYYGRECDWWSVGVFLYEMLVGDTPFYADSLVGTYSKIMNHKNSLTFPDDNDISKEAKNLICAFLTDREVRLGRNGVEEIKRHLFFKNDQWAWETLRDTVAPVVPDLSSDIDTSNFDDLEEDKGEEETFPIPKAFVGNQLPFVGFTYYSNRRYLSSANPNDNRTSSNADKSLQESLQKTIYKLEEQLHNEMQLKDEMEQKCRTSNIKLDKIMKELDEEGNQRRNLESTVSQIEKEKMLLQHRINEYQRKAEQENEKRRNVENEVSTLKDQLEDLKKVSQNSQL

Consider `Cn1cc(C(=O)Nc2cccc(-c3nnc(Nc4ccc5[nH]ncc5c4Cl)s3)c2)cn1` [A11, N-(3-(5-((4-chloro-1H-indazol-5-yl)amino)-1,3,4-thiadiazol-2-yl)phenyl)-1-methyl-1H-pyrazole-4-carboxamide], for which the results for the IC50 in test [1] and in test [2] were 341 ± 38 nM and 6.1 ± 1.4 nM, respectively.
Consider `CCCN[C@H]1CCc2nc(NC(=O)c3cccc([C@@H](C)NC(=O)c4ccc(OC)c(OC)c4)c3)sc2C1` [compound 31, 3,4-dimethoxy-N-((R)-1-(3 - (((S) - 6 - (propylamino) - 4,5,6, 7 tetrahydrobenzo [d]thiazol-2-yl)carbamoyl)phenyl)ethyl) benzamide], for which the IC50 (commonly the concentration at which inhibition is half-maximal) in test [3] is 4 ± 0.6 nM; in test [5], 2.9 ± 0.5 nM. For the same compound, in test [4], the remaining binding at 0.1 µM worked out at 9.3%.
